In US10980899B2, “Differential diagnosis” (GE Healthcare Limited, priority 2016, dated 2021):
Read-outs that look alike come from different tables or passages of the source.

Assays:
DAT = DAT (Homo sapiens, UniProt Q01959); conditions: without SSRI users, reference cerebellum
Description: For this retrospective study, a selection was made from a database of patients diagnosed with either PD, MSA or PSP and for whom a [^123I]FP-CIT-SPECT scan was available. Diagnoses of patients were verified using their medical records. Patients no longer receiving treatment or clinical follow-up were approached by letter and diagnoses were retrieved from their current attending neurologist. This procedure was approved by the local Medical Ethics Committee of the VUmc and all patients provided written informed consent. […] Prior to analysis of [^123I]FP-CIT-SPECT binding ratios (BR), MSA and PSP patients were manually age and gender-matched with 30 PD patients from a research database.
All patients received oral potassium perchlorate to block thyroid uptake of free radioactive iodide. [^123I]FP-CIT was injected intravenously 3 hours before image acquisition at an approximate dose of 185 MBq (specific activity >185 MBq/nmol; radiochemical purity >99%). Subjects were imaged using a dual-head gamma camera (E.Cam; Siemens. Munich. Germany) with a fan-beam collimator. 60×30 second views per head over a 180° orbit on a 128×128 pixel matrix were acquired resulting in a total imaging time of 30 minutes. Image reconstruction was performed using a filtered back projection with a Butterworth filter (order 8. cut-off 0.6 cycles/cm; voxel size: 3.9 mm^3 after reconstruction). Scans were reoriented manually to ensure that left and right striatum were aligned.
ROIs were defined for the DAT-rich caudate nucleus and the SERT-rich thalamus from the automated anatomical labelling (AAL) atlas; the DAT-rich posterior putamen was bilaterally based on the AAL atlas as described elsewhere (Vriend, C. et al. 2014 Mov Disord; 29: 904-11) the SERT-rich pons ROI was based on the Talairach Daemon (TD) Lobes atlas; and the SERT-rich hypothalamus ROI was based on the TD Brodmann area+atlas and 2× dilated. All of these ROIs are implemented in the WFU Pickatlas 3.0 (Wake Forest University, Winston-Salem, N.C., USA).
Non-specific [^123I]FP-CIT binding in the cerebellum was used as a reference (REF) (WFU Pickatlas, AAL atlas; bilateral Crus 2), because the cerebellum is relatively devoid of DAT and SERT. The ratio of specific to non-specific binding (BR), was calculated in Statistical Parametric Mapping Software version 8 (SPM8; Wellcome Trust Centre for Neuroimaging. London. UK) by: [(ROI−REF)/REF], and used as the outcome measure.
Patient analyses were grouped by diagnosis (PD; MSA-P; MSA-C; PSP). MSA was split, since a difference is expected between DAT binding in MSA-P and MSA-C (Munoz E., et al. 2011 J Neurol; 258: 2248-2253).
For the ROI analysis, normality of data was assessed by plotting histograms, examining Q-Q plots and Kolmogorov-Smirnov test for normality. One-way ANOVA tests were used where appropriate. Post-hoc testing was done with Hochberg GT2 correction. An alpha level of 0.05 was used.
ROI analysis in groups without SSRI users (total group n=48: MSA-C=7; MSA-P=6; PSP=10; PD=25)

SERT [1] = target: T1, SERT (Homo sapiens, UniProt P31645); assay: [123I]FP-CIT SPECT ROI analysis, extrastriatal (hypothalamus) binding ratios; type: in vivo; conditions: without SSRI users, reference cerebellum
T1 construct: from tissue; host or cells: living patients' brain: hypothalamus, thalamus, pons (extrastriatal regions)
T1 sequence (P31645 whole entry): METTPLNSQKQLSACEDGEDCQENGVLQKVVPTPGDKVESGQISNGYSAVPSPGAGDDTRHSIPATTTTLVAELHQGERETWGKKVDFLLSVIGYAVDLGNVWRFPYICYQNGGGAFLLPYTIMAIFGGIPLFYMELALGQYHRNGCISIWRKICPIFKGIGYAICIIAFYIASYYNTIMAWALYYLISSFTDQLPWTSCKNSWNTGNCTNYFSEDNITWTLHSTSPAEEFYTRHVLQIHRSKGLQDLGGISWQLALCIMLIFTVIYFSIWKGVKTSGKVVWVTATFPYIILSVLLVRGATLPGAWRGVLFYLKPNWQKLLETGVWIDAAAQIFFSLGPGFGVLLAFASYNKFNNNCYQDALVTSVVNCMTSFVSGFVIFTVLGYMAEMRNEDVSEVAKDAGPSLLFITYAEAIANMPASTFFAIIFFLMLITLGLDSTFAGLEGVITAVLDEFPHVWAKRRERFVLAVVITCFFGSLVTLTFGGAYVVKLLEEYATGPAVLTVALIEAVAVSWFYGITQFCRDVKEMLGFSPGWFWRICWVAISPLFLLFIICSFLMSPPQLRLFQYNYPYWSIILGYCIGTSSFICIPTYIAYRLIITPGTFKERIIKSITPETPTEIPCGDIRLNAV
Description: Diagnoses of patients were verified using their medical records. […]
One-way ANOVA tests were used where appropriate. Post-hoc testing was done with Hochberg GT2 correction. An alpha level of 0.05 was used.

SERT [2] = target: T1, SERT; assay: Voxel-based analysis of [123I]FP-CIT SPECT, extrastriatal binding; type: in vivo; conditions: groups without SSRI users
Procedure: All voxels in the [^123I]FP-CIT SPECT scan were adjusted by the mean binding in the cerebellar reference region according to: [(voxel−REF)/REF]. Voxel-based between-group analyses were performed in SPM8 and explicitly masked for the relevant ROI, using the same masks as the ROI analysis. Statistical threshold was set to P<0.05, Family-Wise Error (FWE) corrected for multiple comparisons, Ke>0. Age was included as nuisance covariate in all analyses.
Masks were based on the Automated anatomical labeling (AAL) atlas and created with the Wake-Forest University PickAtlas tool 3.0. Finally, the results of groups on SSRIs versus not being on a SSRI while scanned were compared with a ROI analysis.
Voxel-Based, Groups without SSRI Users, Extrastriatal Binding

[3] = target: serotonin transporter (SERT) (Homo sapiens, UniProt P31645); conditions: Abi-Dargham et al. 1996; cited from earlier work
serotonin transporter (SERT), sequence (P31645 whole entry, species assumed): as the sequence (P31645 whole entry) above

SERT [4] = target: T1, SERT; conditions: cited from earlier work
[5] = target: dopamine transporter (DAT) (Homo sapiens, UniProt Q01959); conditions: presynaptic membrane of dopaminergic neurons; cited from earlier work
dopamine transporter (DAT), sequence (Q01959 whole entry, species assumed): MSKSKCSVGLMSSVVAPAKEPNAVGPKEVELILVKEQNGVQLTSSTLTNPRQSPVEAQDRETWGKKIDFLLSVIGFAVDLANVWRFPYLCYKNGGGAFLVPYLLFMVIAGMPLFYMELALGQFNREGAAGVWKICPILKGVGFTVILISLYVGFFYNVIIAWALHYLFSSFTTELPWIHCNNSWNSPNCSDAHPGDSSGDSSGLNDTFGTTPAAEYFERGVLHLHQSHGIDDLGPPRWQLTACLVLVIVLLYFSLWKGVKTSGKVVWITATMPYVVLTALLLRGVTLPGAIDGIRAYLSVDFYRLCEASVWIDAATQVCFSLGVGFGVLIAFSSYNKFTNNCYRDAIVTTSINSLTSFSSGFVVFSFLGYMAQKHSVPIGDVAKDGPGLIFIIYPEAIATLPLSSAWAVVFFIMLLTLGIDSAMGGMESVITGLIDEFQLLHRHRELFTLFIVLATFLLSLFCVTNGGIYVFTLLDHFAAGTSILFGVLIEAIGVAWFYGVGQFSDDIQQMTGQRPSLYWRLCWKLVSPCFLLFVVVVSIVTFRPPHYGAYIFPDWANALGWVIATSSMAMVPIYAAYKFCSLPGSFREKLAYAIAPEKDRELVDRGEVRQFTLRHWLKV

DAT, sequence (Q01959 whole entry): as the sequence (Q01959 whole entry, species assumed) above

For `COC(=O)[C@H]1[C@@H](c2ccc([123I])cc2)C[C@@H]2CC[C@H]1N2CCCF` [[^123I]FP-CIT, [^123I]N-w-fluoropropyl-2β-carbomethoxy-3β-(4-iodophenyl) nortropane], the “mean [123I]FP-CIT binding ratio, left caudate” value (DAT; MSA-C patients) was 1.99, the “mean [123I]FP-CIT binding ratio, left posterior putamen” value (DAT; MSA-C patients) was 2.12 and the “mean [123I]FP-CIT binding ratio, right caudate” value (DAT; MSA-C patients) was 2.16. For the same compound, the “mean [123I]FP-CIT binding ratio, right posterior putamen” value (DAT; MSA-C patients) was 1.95, the “mean [123I]FP-CIT binding ratio, left posterior putamen” value (DAT; MSA-P patients) was 1.36 and the “mean [123I]FP-CIT binding ratio, right posterior putamen” value (DAT; MSA-P patients) was 1.19. The “mean [123I]FP-CIT binding ratio, left caudate” value (DAT; PD patients) was 1.87, the “mean [123I]FP-CIT binding ratio, left posterior putamen” value (DAT; PD patients) was 1.58 and the “mean [123I]FP-CIT binding ratio, right caudate” value (DAT; PD patients) was 1.92. The “mean [123I]FP-CIT binding ratio, left caudate” value (DAT; PSP patients) was 1.28, the “mean [123I]FP-CIT binding ratio, left posterior putamen” value (DAT; PSP patients) was 1.29 and the “mean [123I]FP-CIT binding ratio, right caudate” value (DAT; PSP patients) was 1.39. For the same compound, the “mean hypothalamic [123I]FP-CIT binding ratio” value (SERT [1]; MSA-C patients) was 0.78, the “mean hypothalamic [123I]FP-CIT binding ratio” value (SERT [1]; MSA-P patients) was 0.45 and the “mean hypothalamic [123I]FP-CIT binding ratio” value (SERT [1]; PD patients) was 0.67. For the same compound, the “mean hypothalamic [123I]FP-CIT binding ratio” value (SERT [1]; PSP patients) was 0.47, the “hypothalamus binding ratios, between-group comparison (voxel-based)” value (SERT [2]; MSA-C vs PSP) was “higher binding ratios in hypothalamus in MSA-C than in PSP” and the “hypothalamus binding, between-group comparison (voxel-based)” value (SERT [2]; PD vs MSA-P or PSP) was “statistically significantly higher in PD than in MSA-P or PSP”. For the same compound, the “affinity for the serotonin transporter (SERT)” value [3] was “modest affinity”, the “hypothalamus binding, MSA-P and PSP vs PD” value (SERT [4]; Joling et al. 2016) was “lower binding in the hypothalamus in MSA-P and PSP patients than in PD patients” and the “midbrain binding, PSP vs PD” value (SERT [4]; Roselli et al. 2010) was “lower in PSP patients than in PD patients”. The “affinity to the dopamine transporter (DAT)” value [5] was “high affinity”.
